Values joined by “and” are separate entries in the source; they are usually repeats but may differ in a detail not shown here. Equal values may be shown once. Read-outs that look alike come from different tables or passages of the source.
Legend:
PfPanK1 [1] = target: T1, PfPanK1 (Plasmodium falciparum, UniProt Q8ILP4); assay type: biochemical
T1 sequence (Q8ILP4 1-519): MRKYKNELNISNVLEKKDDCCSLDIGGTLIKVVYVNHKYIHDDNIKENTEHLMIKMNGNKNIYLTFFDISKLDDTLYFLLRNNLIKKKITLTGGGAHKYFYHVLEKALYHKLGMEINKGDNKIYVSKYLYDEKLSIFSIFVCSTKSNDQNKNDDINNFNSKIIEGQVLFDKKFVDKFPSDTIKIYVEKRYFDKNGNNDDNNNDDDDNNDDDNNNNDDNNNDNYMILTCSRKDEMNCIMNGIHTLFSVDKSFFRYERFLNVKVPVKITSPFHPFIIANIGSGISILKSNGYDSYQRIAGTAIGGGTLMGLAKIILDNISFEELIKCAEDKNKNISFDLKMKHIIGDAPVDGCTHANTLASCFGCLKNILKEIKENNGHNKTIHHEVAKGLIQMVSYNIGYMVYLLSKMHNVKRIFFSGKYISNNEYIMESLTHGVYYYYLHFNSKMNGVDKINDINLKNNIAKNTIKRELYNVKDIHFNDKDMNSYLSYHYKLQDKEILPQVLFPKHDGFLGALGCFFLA

PfPanK1 [2] = target: T1, PfPanK1; experiment: Screening of natural compounds for PfPanK inhibitors and IC50 determination (recombinant enzyme, ADP Hunter Plus); assay type: biochemical
Procedure: We screened 247 compounds from the Kitasato Natural Products Library ([Mori et al., 2015]; [Nurkanto et al., 2018]) against PfPanK recombinant enzyme. Compounds were dissolved in 50% DMSO at a final concentration of 1 mg/ml.

[3] = metal ion 5 mM, substrate pantetheine, relative to MgCl2, pH 8.4, 37°C
[4] = metal ion 5 mM, substrate pantothenate, relative to MgCl2, pH 8.4, 37°C
[5] = primary screening; compound at 50 µM final concentration (methods: 50 µg/ml); 37°C, 2 h
[6] = pantetheine as substrate, 100 μM ATP, pH 8.4, 37°C
[7] = substrate pair pantetheine and ATP
[8] = substrate pair pantetheine and ATP, 120 µM ATP or 100 µM pantetheine, 37°C
[9] = substrate pair pantothenate and ATP

## [Cl-].[Cl-].[Zn+2] [ZnCl2]
PfPanK1 [1]; [3]
  Relative activity (%) Pantetheine: 29.0 ± 0.6%
PfPanK1 [1]; [4]
  Relative activity (%) Pantothenate: 35.6 ± 5.6%

## CON1C(=O)[C@H]2NC(=O)[C@]13Oc1cc(O)c(Cl)cc1[C@@H]3SS2 [Aspirochlorine]
PfPanK1 [2]; 2 h, primary screening; 37°C
  inhibition: 49.7%

## CC1(C)S[C@@H]2[C@H](NC(=O)[C@H](N)c3ccc(O)cc3)C(=O)N2[C@H]1C(=O)O [Amoxicillin]
PfPanK1 [2]; primary screening; 37°C, 2 h
  inhibition: 45.7%

## C=C/C(C)=C/[C@@]1(C)SC(=O)C(C)=C1O [Thiolactomycin]
PfPanK1 [2]; primary screening; 37°C, 2 h
  inhibition: 42.4%

## C/C=C\C=C\[C@@H]1O[C@](O)([C@H](CC)C(=O)NC/C=C/C=C(\C)[C@@H](OC)[C@@H](C)[C@@H]2O[C@H](/C=C/C=C/C=C(\C)C(=O)c3c(O)ccn(C)c3=O)[C@H](O)[C@@H]2O)[C@H](O)[C@H](O)C1(C)C [Aurodox]
PfPanK1 [2]; [5]
  PfPanK1 Inhibition (%): 52.2%

## CC(=O)SCCNC(=O)CCNC(=O)[C@H](O)C(C)(C)COP(=O)(O)OP(=O)(O)OC[C@H]1O[C@@H](n2cnc3c(N)ncnc32)[C@H](O)[C@@H]1OP(=O)(O)O [Acetyl CoA]
PfPanK1 [1]; [6]
  Effect on PfPanK1 activity: did not affect PfPanK1 activity
PfPanK1 [1]; pantothenate as substrate
  IC50: > 1000 µM

## Nc1ncnc2c1ncn2[C@@H]1O[C@H](COP(=O)(O)OP(=O)(O)OP(=O)(O)O)[C@@H](O)[C@H]1O [ATP]
PfPanK1 [1]
  K m: 59.3 ± 7.9 µM
PfPanK1 [1]; pH 8.4
  Relative activity (%) Pantothenate: 100%
PfPanK1 [1]; phosphoryl donor (NTP) 100 µM, substrate pantetheine, relative to ATP, pH 8.4, 37°C
  Relative activity (%) Pantetheine: 100%
PfPanK1 [1]; [7]
  V max: 18.3 ± 3.0 µmol/min/mg
  k cat: 20.55 ± 0.9 s⁻¹
  k cat/K m: 26.6 ± 6.3 min^-1µM^-1
PfPanK1 [1]; [8]
  K m: 43.4 ± 3.3 µM and 43.4 ± 3.4 µM
PfPanK1 [1]; [9]
  V max: 15.9 ± 2.5 µmol/min/mg
  k cat: 16.1 ± 1.72 s⁻¹
  k cat/K m: 16.1 ± 1.0 min^-1µM^-1

## CC(C)(CO)C(O)C(=O)NCCCO (stereo not shown) [panthenol]
PfPanK1 [1]; high concentrations of panthenol (e.g., 0.5 mM), regardless of the substrates
  Increase of enzyme activity: up to 40%
PfPanK1 [1]; [6]
  Effect on PfPanK1 activity: did not inhibit PfPanK1 activity
PfPanK1 [1]; pantothenate as substrate, 100 μM ATP, pH 8.4, 37°C
  Effect on PfPanK1 activity: did not inhibit PfPanK1 activity

## Cc1cn([C@H]2C[C@H](O)[C@@H](COP(=O)(O)OP(=O)(O)OP(=O)(O)O)O2)c(=O)[nH]c1=O [TTP]
PfPanK1 [1]; pH 8.4
  Relative activity (%) Pantetheine: 0.0 ± 0.0%
  Relative activity (%) Pantothenate: 13.1 ± 1.0%

## CC(/C=C/C(=O)NO)=C\[C@@H](C)C(=O)c1ccc(N(C)C)cc1 [Trichostatin]
PfPanK1 [2]; primary screening; 37°C, 2 h
  inhibition: 47.2%

## CC(C)(CO)[C@@H](O)C(=O)NCCC(=O)O [Pantothenate]
PfPanK1 [1]
  K m: 44.6 ± 5.6 µM
  k cat/K m: 19.1 ± 1.0 min^-1µM^-1
PfPanK1 [1]; [9]
  V max: 14.2 ± 0.71 µmol/min/mg
  k cat: 14.2 ± 1.28 s⁻¹

## O=c1ccn([C@@H]2O[C@H](COP(=O)(O)OP(=O)(O)OP(=O)(O)O)[C@@H](O)[C@H]2O)c(=O)[nH]1 [UTP]
PfPanK1 [1]; pH 8.4
  Relative activity (%) Pantetheine: 23.8 ± 2.3%
  Relative activity (%) Pantothenate: 64.1 ± 1.0%

## [Cl-].[Li+] [LiCl2]
PfPanK1 [1]; [3]
  Relative activity (%) Pantetheine: 32.6 ± 4.1%
PfPanK1 [1]; [4]
  Relative activity (%) Pantothenate: 37.9 ± 9.6%

## [Cl][Fe][Cl] [FeCl2]
PfPanK1 [1]; [3]
  Relative activity (%) Pantetheine: 58.3 ± 3.3%
PfPanK1 [1]; metal ion 5 mM, substrate pantetheine, relative to MgCl2, pH 8.4, 37°C, listed as Ferrous cation
  Relative activity (%) Pantetheine: approximately 60%
PfPanK1 [1]; [4]
  Relative activity (%) Pantothenate: 104.7 ± 14.9%

## [Cl-].[K+] [KCl]
PfPanK1 [1]; [3]
  Relative activity (%) Pantetheine: 33.6 ± 3.4%
PfPanK1 [1]; [4]
  Relative activity (%) Pantothenate: 29.7 ± 2.3%

## CC(C)(CO)[C@@H](O)C(=O)NCCC(=O)NCCS [Pantetheine]
PfPanK1 [1]; [7]
  V max: 19.6 ± 1.2 µmol/min/mg
  k cat: 19.52 ± 0.417 s⁻¹
  k cat/K m: 25.6 ± 0.7 min^-1µM^-1
PfPanK1 [1]; [8]
  K m: 45.7 ± 6.9 µM

## [Ca+2].[Cl-].[Cl-] [CaCl2]
PfPanK1 [1]; [3]
  Relative activity (%) Pantetheine: 30.5 ± 1.6%
PfPanK1 [1]; [4]
  Relative activity (%) Pantothenate: 39.9 ± 4.7%

## Nc1nc2c(ncn2[C@@H]2O[C@H](COP(=O)(O)OP(=O)(O)OP(=O)(O)O)[C@@H](O)[C@H]2O)c(=O)[nH]1 [GTP]
PfPanK1 [1]; pH 8.4
  Relative activity (%) Pantetheine: 106.5 ± 4.4%
  Relative activity (%) Pantothenate: 107.6 ± 8.1%

## CC(/C=C/C(O)=C1/C(=O)CNC1=O)=C\[C@@H](C)[C@H]1O[C@@]2(C)O[C@H](C(=O)[C@H]3O[C@]32C)[C@@H]1C [Tirandamycin A]
PfPanK1 [2]; [5]
  PfPanK1 Inhibition (%): 49.7%

## NC[C@@H]1O[C@H](O[C@H]2[C@@H](O)[C@H](O[C@@H]3[C@@H](O)[C@H](N)C[C@H](N)[C@H]3O[C@H]3O[C@H](CO)[C@@H](O)C[C@H]3N)O[C@@H]2CO)[C@H](N)[C@@H](O)[C@@H]1O[C@H]1O[C@H](CO)[C@@H](O)[C@H](O)[C@@H]1O [Lividomycin A]
PfPanK1 [2]; 2 h, primary screening; 37°C
  inhibition: 44%

## [Cl-].[Cl-].[Co+2] [CoCl2]
PfPanK1 [1]; pH 8.4, 37°C
  Relative activity (%) Pantetheine: 22.3 ± 1.0%
  Relative activity (%) Pantothenate: 25.8 ± 1.9%

## CS[C@H]1SC[C@H]2C(=O)N(C)[C@@H](C(C)C)C(=O)OC[C@@H](NC(=O)c3cnc4ccccc4n3)C(=O)N[C@@H](C)C(=O)N(C)[C@@H]1C(=O)N(C)[C@@H](C(C)C)C(=O)OC[C@@H](NC(=O)c1cnc3ccccc3n1)C(=O)N[C@@H](C)C(=O)N2C [Echinomycin]
PfPanK1 [2]; 2 h, primary screening; 37°C
  inhibition: 47.1%

## [Cl][Cu][Cl] [CuCl2]
PfPanK1 [1]; [3]
  Relative activity (%) Pantetheine: 8.5 ± 1.3%
PfPanK1 [1]; [4]
  Relative activity (%) Pantothenate: 16.4 ± 1.5%

## [Cl][Ni][Cl] [NiCl2]
PfPanK1 [1]; [3]
  Relative activity (%) Pantetheine: 41.4 ± 3.4%
PfPanK1 [1]; [4]
  Relative activity (%) Pantothenate: 49.0 ± 5.5%

## CN[C@@H]1[C@H](O)[C@H](NC)[C@H]2O[C@@]3(O)C(=O)C[C@@H](C)O[C@H]3O[C@@H]2[C@H]1O [Spectinomycin (Actinospectacin), Spectinomycin]
PfPanK1 [2]; [5]
  PfPanK1 Inhibition (%): 55.0%

## Gardimycin
PfPanK1 [2]; [5]
  PfPanK1 Inhibition (%): 42.5%

## Nc1ccn([C@@H]2O[C@H](COP(=O)(O)OP(=O)(O)OP(=O)(O)O)[C@@H](O)[C@H]2O)c(=O)n1 [CTP]
PfPanK1 [1]; pH 8.4
  Relative activity (%) Pantetheine: 11.3 ± 0.6%
  Relative activity (%) Pantothenate: 28.1 ± 2.8%

## CO[C@@H]1[C@@H](O[C@@H]2O[C@H](C)[C@@H](O[C@H]3C[C@@](C)(O)[C@@H](OC(=O)CC(C)C)[C@H](C)O3)[C@H](N(C)C)[C@H]2O)[C@@H](CC=O)C[C@@H](C)[C@@H](O)/C=C/C=C/C[C@@H](C)OC(=O)C[C@H]1OC(C)=O [Leucomycin A3]
PfPanK1 [2]; 2 h, primary screening; 37°C
  inhibition: 40.1%

## CCC[C@@H]1C[C@@H](C(=O)N[C@@H]([C@H]2O[C@H](SC)[C@H](O)[C@@H](O)[C@H]2O)[C@@H](C)O)N(C)C1 [Lincomycin]
PfPanK1 [2]; 2 h, primary screening; 37°C
  inhibition: 41.3%

## Thaimycin
PfPanK1 [2]; [5]
  PfPanK1 Inhibition (%): 53.9%

## [Cl-].[Cl-].[Mg+2] [MgCl2]
PfPanK1 [1]; [3]
  Relative activity (%) Pantetheine: 100%
PfPanK1 [1]; [4]
  Relative activity (%) Pantothenate: 100%

## CN[C@@H]1[C@H](O[C@H]2[C@H](O[C@H]3[C@H](O)[C@@H](O)[C@H](NC(=N)N)[C@@H](O)[C@@H]3NC(=N)N)O[C@@H](C)[C@]2(O)CO)O[C@@H](CO)[C@H](O)[C@H]1O [Dihydrostreptomycin]
PfPanK1 [2]; 2 h, primary screening; 37°C
  inhibition: 44.7%

## Gramicidin NF
PfPanK1 [2]; [5]
  PfPanK1 Inhibition (%): 45.5%

## [Cl][Mn][Cl] [MnCl2]
PfPanK1 [1]; [3]
  Relative activity (%) Pantetheine: 55.3 ± 0.1%
PfPanK1 [1]; [4]
  Relative activity (%) Pantothenate: 41.7 ± 8.4%

## Nc1ncnc2c1ncn2[C@H]1C[C@H](O)[C@@H](COP(=O)(O)OP(=O)(O)OP(=O)(O)O)O1 [dATP]
PfPanK1 [1]; pH 8.4
  Relative activity (%) Pantetheine: 8.5 ± 2.7%
  Relative activity (%) Pantothenate: 9.0 ± 2.2%

## NC[C@H]1O[C@H](O[C@H]2[C@H](O[C@@H]3O[C@H](CO)[C@@H](O)[C@H]3O)[C@@H](O)[C@H](N)C[C@@H]2N)[C@H](N)[C@@H](O)[C@@H]1O [Ribostamycin]
PfPanK1 [2]; 2 h, primary screening; 37°C
  inhibition: 46.6%

## CN[C@@H]1[C@H](O)[C@H](NC)[C@H]2O[C@@]3(O)C(=O)C[C@@H](C)O[C@H]3O[C@@H]2[C@H]1O [Spectinomycin (Trobicin), Spectinomycin]
PfPanK1 [2]; 2 h, primary screening; 37°C
  inhibition: 47.8%

## [Cl-].[Na+] [NaCl]
PfPanK1 [1]; pH 8.4
  Relative activity (%) Pantetheine: 33.1 ± 6.2%
  Relative activity (%) Pantothenate: 41.4 ± 5.3%

## Cc1nnc(SCC2=C(C(=O)O)N3C(=O)[C@@H](NC(=O)Cn4cnnn4)[C@H]3SC2)s1 [Cefazolin]
PfPanK1 [2]; 2 h, primary screening; 37°C
  inhibition: 44.2%

## CC(C)(COP(=O)(O)OP(=O)(O)OC[C@H]1O[C@@H](n2cnc3c(N)ncnc32)[C@H](O)[C@@H]1OP(=O)(O)O)[C@@H](O)C(=O)NCCC(=O)NCCS [CoA, Coenzyme A]
PfPanK1 [1]; pH 8.4
  Effect on PfPanK1 activity: inhibited
PfPanK1 [1]; [6]
  Effect on PfPanK1 activity: inhibited
